We go through two molecules from patent US12708655B2, “Botanicals as WNT/beta-catenin activators, molecular pathway regulators, tissue regenerators and health biomarker regulators” (Arbor Life Holdings, Ltd., priority 2020, dated 2026).

The test system of experiment [1] is LNCaP prostate cancer cells. Particulars: cells stimulated by DHT; cited from earlier work.
For a further experiment, the target named is T1, androgen receptor (Homo sapiens, UniProt P10275).
T1 construct: nuclear translocation of the androgen receptor stimulated by DHT in human dermal papilla cells; host or cells: human dermal papilla cells
T1 sequence (P10275 1-920): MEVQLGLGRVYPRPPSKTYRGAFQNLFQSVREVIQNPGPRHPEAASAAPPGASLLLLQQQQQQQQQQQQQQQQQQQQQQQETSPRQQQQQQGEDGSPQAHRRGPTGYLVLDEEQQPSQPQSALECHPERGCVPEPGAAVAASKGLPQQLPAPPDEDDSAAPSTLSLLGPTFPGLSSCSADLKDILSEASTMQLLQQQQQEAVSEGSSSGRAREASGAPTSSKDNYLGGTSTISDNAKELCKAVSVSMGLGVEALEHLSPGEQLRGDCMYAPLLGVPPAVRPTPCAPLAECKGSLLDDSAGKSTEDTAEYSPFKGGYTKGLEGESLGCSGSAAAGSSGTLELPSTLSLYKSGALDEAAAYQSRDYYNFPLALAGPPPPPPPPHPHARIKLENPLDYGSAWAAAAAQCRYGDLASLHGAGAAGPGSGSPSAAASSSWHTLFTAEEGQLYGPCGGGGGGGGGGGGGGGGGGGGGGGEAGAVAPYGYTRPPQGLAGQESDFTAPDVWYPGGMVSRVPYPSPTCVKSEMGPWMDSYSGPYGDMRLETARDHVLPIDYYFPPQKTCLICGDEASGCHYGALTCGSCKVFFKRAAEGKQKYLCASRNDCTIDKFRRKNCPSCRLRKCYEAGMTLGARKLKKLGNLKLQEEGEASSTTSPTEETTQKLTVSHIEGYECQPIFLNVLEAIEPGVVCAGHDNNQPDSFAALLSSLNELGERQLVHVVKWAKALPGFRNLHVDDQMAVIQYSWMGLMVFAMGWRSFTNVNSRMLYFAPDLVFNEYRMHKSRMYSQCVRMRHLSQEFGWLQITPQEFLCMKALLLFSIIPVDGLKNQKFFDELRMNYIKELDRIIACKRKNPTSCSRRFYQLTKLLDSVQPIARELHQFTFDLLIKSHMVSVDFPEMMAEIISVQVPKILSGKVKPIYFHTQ
Particulars: human dermal papilla cells; cited from earlier work.

Experiment [2] has as its system human dermal papilla cells. To be noted: in vitro; cited from earlier work.
The subject of experiment [3] is androgenetic alopecia and telogen effluvium in Men. In words: Comparative analysis of clinical trial results in men versus standard of care, adjusted to 24 weeks. Format: in vivo, human.
Experiment [4] has as its system androgentic alopecia and telogen effluvium in Women. In words: Comparative analysis of clinical trial results in women versus standard of care, adjusted to 24 weeks. The format is in vivo, human.
Experiment [5] relates to androgenetic alopecia and telogen effluvium in Men. To be noted: adjusted to 24 weeks, cited from earlier work.
For experiment [6], the system named is androgentic alopecia and telogen effluvium in Women. To be noted: adjusted to 24 weeks, from clinical trial or systematic review; cited from earlier work.

Turning to `O=C(O)[C@H]1O[C@@H](Oc2cc3oc(-c4ccccc4)cc(=O)c3c(O)c2O)[C@H](O)[C@@H](O)[C@@H]1O` [baicalin], in experiment [1], the “overgrowth of LNCaP prostate cancer cells” value is given as “dose-dependently inhibited”. On androgen receptor, the “nuclear translocation of the androgen receptor stimulated by DHT” value was “inhibited”. Further, in experiment [2], the “proliferation of human dermal papilla cells” value is “enhanced proliferation”.
On to `CC(C)(C)NC(=O)[C@H]1CC[C@H]2[C@@H]3CC[C@H]4NC(=O)C=C[C@]4(C)[C@H]3CC[C@]12C` [finasteride 1 mg, finasteride], for which the results for the “Efficacy Factor Multiple vs 2% Minoxidil” value in experiment [3] and in experiment [4] were 1.0 and −0.1, respectively. For the same molecule, in experiment [5] (from clinical trial or systematic review), the “Changes in Terminal Hairs per sq.cm vs placebo” value is 6.4 per sq.cm. Besides, the “Changes in Terminal hair count per sq·cm versus placebo, comparators” value in experiment [5] (systematic reviews of randomized controlled trials) is reported as 6.4 per sq·cm. The “Changes in Terminal Hairs per sq.cm, difference between active and placebo groups” value in experiment [6] is on record as −1.0 per sq.cm.
